Assay: xn = mol fraction of the nth substance listed
Details: 101 kPa, Liquid

CCCCn1cc[n+](C)c1.[Cl-] [1-butyl-3-methylimidazolium chloride] + CC#N
mass density [kg/m3]
Details	x1 = 0.0303	x1 = 0.0797	x1 = 0.1308	x1 = 0.1806	x1 = 0.235	x1 = 0.2914	x1 = 0.3717	x1 = 0.439
293.15 K	815.47	859.07	894.46	922.76	948.31	970.09	995.09	1012.49
298.15 K	810.4	854.38	890.07	918.62	944.36	966.32	991.52	1009.08
303.15 K	805.29	849.67	885.68	914.46	940.39	962.55	987.95	1005.66
308.15 K	800.18	844.95	881.27	910.3	936.47	958.78	984.38	1002.25
313.15 K	795.05	840.21	876.86	906.14	932.51	955.02	980.83	998.86
318.15 K	789.88	835.48	872.45	901.98	928.57	951.26	977.28	995.46

CCCCn1cc[n+](C)c1.[Cl-] [1-butyl-3-methylimidazolium chloride] + CN(C)C=O
mass density [kg/m3]
Details	x1 = 0.0332	x1 = 0.0835	x1 = 0.1303	x1 = 0.1822	x1 = 0.2289	x1 = 0.3069	x1 = 0.3879	x1 = 0.4488
293.15 K	961.92	978	990.54	1002.71	1012.04	1025.51	1037.1	1044.53
298.15 K	957.33	973.63	986.33	998.67	1008.12	1021.78	1033.54	1041.06
303.15 K	952.73	969.25	982.13	994.62	1004.21	1018.05	1029.98	1037.61
308.15 K	948.12	964.87	977.91	990.58	1000.3	1014.34	1026.42	1034.18
313.15 K	943.52	960.48	973.71	986.54	996.4	1010.63	1022.89	1030.77
318.15 K	938.89	956.09	969.5	982.51	992.5	1006.94	1019.36	1027.36

— the NIST ThermoML archive (doi:10.1021/je900733j)
